Series [1] concerns Vero (kidney epithelial cells; ATCC CCL-81). In words: Cytotoxicity assay (CellTiter-Glo cell viability, 72 hours). It is filed as cell-based. Particulars: Vero cells, 72 hours, growth inhibition; read-out: Cytotoxicity IC50. How it is done:
(§1) Cytotoxicity was determined by determining the effect of compounds on cell viability. Vero (kidney epithelial cells; ATCC CCL-81) monolayers were trypsinized and 5000 cells/well were seeded (10-15% confluency) into white-wall, flat bottom 96 well microwell plates (Corning) using enriched Dulbecco's Modified Eagle's Medium (Hyclone:DMEM/High Glucose) containing 10% Fetal Bovine Serum (ATCC-30-2020). Plates were incubated overnight at 37° C. in the presence of 5% CO2. Drug-free media was then replaced with media containing serial dilutions of test compound or DMSO carrier. After an additional 72 hours of incubation, viability was indirectly measured using the CellTiter-Glo® Luminescent Cell Viability (Promega) assay. Assay plates were read at peak emission wavelength of 560 nm using a EnVision® Multilabel Plate Reader (Perkin Elmer) or PHERAstar FS Multilabel reader (BMG, Cary, N.C.). […] USA, www.graphpad.com]. For each experiment, compounds were tested in duplicate. IC50 values presented are the range of two biologically independent experiments.

Series [2] concerns the target T1, Sa-ClpP (Staphylococcus aureus, UniProt Q2G036).
T1 construct: made in house; host or cells: E. coli BL21(DE3)
T1 sequence (Q2G036 1-195): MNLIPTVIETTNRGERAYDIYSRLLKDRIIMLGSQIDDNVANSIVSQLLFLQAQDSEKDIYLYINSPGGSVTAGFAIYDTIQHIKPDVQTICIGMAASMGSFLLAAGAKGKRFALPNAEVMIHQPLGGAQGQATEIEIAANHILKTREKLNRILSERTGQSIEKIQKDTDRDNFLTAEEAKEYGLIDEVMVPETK
In words: Sa-ClpP casein-BODIPY ClpP activation assay, method variant not marked in Table 5. Format: biochemical, S. aureus. How it is done: The compounds were assayed in a casein digestion assay in order to determine their effect on ClpP activation. Briefly, the assay was carried out using S. aureus ClpP (“Sa-ClpP”) overexpressed in E. coli BL21(DE3) and purified in a two-step process. Purity of the protein was assessed through SDS PAGE analysis. EC50 evaluations were conducted in triplicate in a 20 μl assay format using a method adapted from Maurizi et al. (Methods Enzymol. (1994) 244:314-331). Each well contained 10 μM saClpP, 25 μg/ml BODIPY FL casein (Invitrogen Corporation, San Diego, Calif.), and test compound in concentrations ranging between 0-1000 μM in assay buffer (50 mM Tris pH 8, 200 mM KCl, and 1 mM TCEP). The reaction took place at 37° C. Fluorescence (excitation 485 nm; emission 528 nm) was measured in five minute intervals over a 45 min period using a BioTek HT fluorescence microplate reader (BioTek Instruments, Inc., Winooski, Vt.). Velocity of each reaction was calculated and data was fit to a dose response curve using GraphPad Prism® software (GraphPad Software, Inc., La Jolla, Calif.). EC50 is the effective concentration of compound which causes 50% activation of S. aureus ClpP in the foregoing BODIPY FL casein assay.
Alternatively, the assay was carried out using EnzCheck Protease Assay (Molecular Probes, Catalog # E6638). The assay was performed in black 384 well, flat bottom, low volume plates (Greiner Bio-One, Monroe, N.C., catalog #784076). 10 μL of Tris*HCl buffer, pH 8.0 with 0.01% Triton X-100 was pipetted into each well using a Well-Mate (Thermo Scientific, Waltham, Mass.). 0.4 μL test compounds or controls (2% DMSO v/v) were added to each well using a Biomek FX liquid handling robot (Beckman Coulter, Indianapolis Ind.). After addition of test compounds and controls, 10 μL of master mix containing 2 μM Sa-ClpP and 2 μM substrate (Bodipy-FL labeled casein) in Tris*HCl buffer, pH 8.0 with 0.01% (v/v) Triton X-100, was pipetted into each well. All assays were performed in triplicate, under linear velocity conditions. Increase in fluorescent signal following activation of Sa-ClpP by test compounds and controls was measured over time period of 30 mins using filters with excitation at 485±15 nm and emission at 520±25 nm on a PHERAstar FS Multilabel reader (BMG, Cary, N.C.). […] Data analysis was done by measuring rate of casein degradation over time (slopes). Computed degradation rates (slopes) were normalized to positive (ADEP4) or negative (DMSO) controls. Using nonlinear regression curve fitting EC50 values and % activation were determined using the equation “log [agonist] vs. Response-variable slope (four parameters)-symmetrical” in the program Prism 6 (GraphPad Software, La Jolla, Calif. USA, www.graphpad.com).
Substituted urea depsipetide analogs were synthesized as described above. The EC50 for ClpP activation was determined in the Sa-ClpP in casein-BODIPY assay as described above. The IC50 for ADEP displacement was determined in the ADEP displacement fluorescent polarization assay as described above; and the IC50 for growth inhibition was determined in the Vero cell cytotoxicity assay as described above. The compound number corresponds to the compound numbers used in Tables 1-4 and the experimental examples described above.

Series [3] concerns the target T1, Sa-ClpP. In words: ADEP displacement fluorescence polarization assay (FP probe ADEP 2591). It is filed as binding. How it is done: A fluorescence polarization (FP) assay was used to determine the activity of the disclosed compounds in displacing an ADEP analogue from ClpP. Briefly, the assay was performed in black 384 well, flat bottom, low volume plates (Greiner Bio-One, Monroe, N.C., catalog #784076). 20 μL of a pre-equilibrated (1 hr, room temperature) master mix (15 μM Sa-ClpP, 2% DMSO (v/v) and 50 nM FP probe in Tris*HCl, pH 8.0)) was pipetted into each well using a Well-Mate (Thermo Scientific, Waltham, Mass.). Sa-ClpP was prepared as described above for the ClpP activation assay. The FP probe was ADEP 2591 (structure shown above). The ADEP 2591 comprises a TAMRA fluorophore linked to a core based on modified ADEP 2378 via a short alkyl linker. Using pin transfer, approximately 0.4 μL (2% v/v DMSO) of each compound or control was added per well. After addition of compounds and controls, plates were allowed to incubate for an additional 120 minutes at room temperature. All assays were performed in triplicate. Polarization was monitored using an EnVision Multilabel reader (Perkin-Elmer, Waltham, Mass.) by exciting the FP probe at 530±25 nm, and monitoring fluorescence intensity of both parallel and perpendicular polarized light at 579±25 nm. Readout was in millipolarization units (mP).
Data collected was normalized to values obtained from positive (200 μM ADEP 2378) or negative (DMSO) controls. Curves were fit with non-linear regression using the equation “log [inhibitor] vs. Response-variable slope (four parameters)-symmetrical” in the program Prism 6 (GraphPad Software, La Jolla, Calif. USA, www.graphpad.com). The structures for ADEP 2378 and ADEP 2591 are shown above. ADEP 2378 is (E)-N—((S)-1-(((2R,6S,8aS,14aS,20S,23aS)-2,6-dimethyl-5,8,14,19,23-pentaoxooctadecahydro-1H,5H,14H,19H-pyrido[2,1-i]dipyrrolo[2,1-c:2′,1′-1][1]oxa[4,7,10,13]tetraazacyclohexadecin-20-yl)amino)-1-oxo-3-phenylpropan-2-yl)pent-2-enamide. ADEP 2591 is 5-(3-(3-((6S,9S,11aS,17S,20aS)-6,10-dimethyl-5,8,11,16,20-pentaoxo-17-((S)-2-((E)-pent-2-enamido)-3-phenylpropanamido)hexadecahydro-1H,5H,16H-dipyrrolo[2,1-c:2′,1′-1][1]oxa[4,7,10,13]tetraazacyclohexadecin-9-yl)propyl)thioureido)-2-(6-(dimethylamino)-3-(dimethyliminio)-3H-xanthen-9-yl)benzoate.

Series [4] in a line: Cytotoxicity assay (CellTiter-Glo cell viability, 72 hours). Format: cell-based. The settings on record: African green monkey; Vero cells, 72 hours, growth inhibition; read-out: Cytotoxicity IC50. How it is done: as §1
Setting [5] is: values without ** or † mark, assay variant not stated, read-out: ClpP Activation EC50.
Where [6] appears, read: displacement of FP probe ADEP 2591 from Sa-ClpP, read-out: ADEP Displacement IC50.

These results are taken from patent publication US10457707B2, “Substituted urea depsipeptide analogs as activators of the CLPP endopeptidase” (priority 2015, dated 2019).

Read-outs that look alike come from different tables or passages of the source. *1 amine or outer side, *2 acyl side, *3 side chain or, on linkers, in order; H or OH if unused. Where a SMILES comes first, the peptide text is derived from it. Bridges are numbered along the chain shown (N, C = ends). [ ]: non-standard residue; d: D form. The star is where a group is joined. ξ: configuration not given here. Phe(3,5-F2) = N[CH](Cc1cc(F)cc(F)c1)C(=O)O; NH(4-OCF3-phenyl) = FC(F)(F)Oc1ccc(N*)cc1; X14 = O=C(C1CC(OP(=O)(O)O)CN1[*:1])[*:2]; Pro(4S-Me) = C[C@@H]1CN[C@H](C(=O)O)C1; Pro(4R-Me) = C[C@H]1CN[C@H](C(=O)O)C1; NH(3,4-Me2-phenyl) = Cc1ccc(N*)cc1C; aThr = C[C@H](O)[C@H](N)C(=O)O; ξPro(4ξ-Me) = CC1CNC(C(=O)O)C1; X13 = c1nc2cc(N*)ccc2[nH]1; Pip = O=C(O)[CH]1CCCCN1; CO = O=C([*:1])[*:2] Some results are limits rather than exact numbers.

As to `C[C@H]1C[C@H]2C(=O)O[C@@H](C)[C@H](NC(=O)[C@H](Cc3cc(F)cc(F)c3)NC(=O)Nc3ccc(OC(F)(F)F)cc3)C(=O)N3CCC[C@H]3C(=O)N3CCCC[C@H]3C(=O)N[C@@H](C)C(=O)N2C1` [Compound 22, (S)-3-(3,5-difluorophenyl)-2-(3-(4-(trifluoromethoxy)phenyl)ureido)-N-((2R,6S,8aS,14aS,20S,21S,23aS)-2,6,21-trimethyl-5,8,14,19,23-pentaoxooctadecahydro-1H,5H,14H,19H-pyrido[2,1-i]dipyrrolo[2,1-c:2′,1′-l][1]oxa[4,7,10,13]tetraazacyclohexadecin-20-yl)propanamide] ({NH(4-OCF3-phenyl)-CO}-[Phe(3,5-F2)][aThr]P[Pip]A[Pro(4S-Me)]; ester 2-C), in series [1], the IC50 was found to be 52.3 ± 7.7 µM.
For `Cc1ccc(NC(=O)NC(Cc2cc(F)cc(F)c2)C(=O)NC2C(=O)N3CC(OP(=O)(O)O)CC3C(=O)N3CCCCC3C(=O)NC(C)C(=O)N3CC(C)CC3C(=O)OC2C)cc1C` [Compound 192, sodium (2R,6S,8aS,14aS,16R,20S,21S,23aS)-20-((S)-3-(3,5-difluorophenyl)-2-(3-(3,4-dimethylphenyl)ureido)propanamido)-2,6,21-trimethyl-5,8,14,19,23-pentaoxooctadecahydro-1H,5H,14H,19H-pyrido[2,1-i]dipyrrolo[2,1-c:2′,1′-l][1]oxa[4,7,10,13]tetraazacyclohexadecin-16-yl phosphate] ({NH(3,4-Me2-phenyl)-CO}-[Phe(3,5-F2)]T[X14][Pip]A[ξPro(4ξ-Me)]; ester 2-C; configuration not given here), in series [2], the EC50 was 0.6 ± 0.02 µM. The IC50 in series [3] amounted to 7.37 ± 0.28 µM.
On to `C[C@@H]1C[C@H]2C(=O)O[C@@H](C)[C@H](NC(=O)[C@H](Cc3cc(F)cc(F)c3)NC(=O)Nc3ccc4[nH]cnc4c3)C(=O)N3CCC[C@H]3C(=O)N3CCCC[C@H]3C(=O)N[C@@H](C)C(=O)N2C1` [Compound 303, (S)-2-(3-(1H-benzo[d]imidazol-6-yl)ureido)-3-(3,5-difluorophenyl)-N-((2R,6S,8aS,14aS,20S,21S,23aS)-2,6,21-trimethyl-5,8,14,19,23-pentaoxooctadecahydro-1H,5H,14H,19H-pyrido[2,1-i]dipyrrolo[2,1-c:2′,1′-l][1]oxa[4,7,10,13]tetraazacyclo-hexadecin-20-yl)propanamide] ({X13-CO}-[Phe(3,5-F2)][aThr]P[Pip]A[Pro(4R-Me)]; ester 2-C), for which the EC50 in series [2] (setting [5]) turned out to be 1.43 ± 0.03 µM. Further, the half-maximal inhibitory concentration (IC50) in series [3] was determined as 11.1 ± 0.4 µM. Moreover, the IC50 at 72 h in series [4] was > 100 µM.
Turning to “sodium (2R,6S,8aS,14aS,16R,20S,21S,23aS)-20-((S)-3-(3,5-difluorophenyl)-2-(3-(p-tolyl)ureido)propanamido)-2,6,21-trimethyl-5,8,14,19,23-pentaoxooctadecahydro-1H,5H,14H,19H-pyrido[2,1-i]dipyrrolo[2,1-c:2′,1′-l][1]oxa[4,7,10,13]tetraazacyclohexadecin-16-yl phosphate [Compound 191]”, in series [2] (setting [5]), the EC50 was determined as 0.7 ± 0.03 µM. The IC50 in series [3] (setting [6]) was 8.56 ± 0.38 µM.
Turning to “sodium (R)-1-((2R,6S,9S,11aS,17S,18S,20aS)-17-((S)-3-(3,5-difluorophenyl)-2-(3-(p-tolyl)ureido)propanamido)-2,6,10,18-tetramethyl-5,8,11,16,20-pentaoxohexadecahydro-1H,5H,16H-dipyrrolo[2,1-c:2′,1′-l][1]oxa[4,7,10,13]tetraazacyclohexadecin-9-yl)ethyl phosphate [Compound 193]”, in series [2] (setting [5]), the EC50 was 0.77 ± 0.05 µM. Further, the IC50 in series [3] (setting [6]) worked out at 7.15 ± 0.33 µM.
